In patent publication US20100317671A1, “XANTHINE-BASED CYCLIC GMP-ENHANCING RHO-KINASE INHIBITOR INHIBITS PHYSIOLOGICAL ACTIVITIES OF LUNG EPITHELIAL CELL LINE” (KAOHSIUNG MEDICAL UNIVERSITY, priority 2008, published 2010):
Where a name gives a salt, the structure may show the parent alone.

Key:
[1] = Monocrotaline (MCT)-induced pulmonary arterial hypertension, PABP; assay type: in vivo, male Wistar rats; details: MCT-treated rats; for Pulmonary arterial blood pressure (PABP), in words: 2.5 mg/kg orally every day; for PABP: 2.5 mg/kg/day p.o.
Description: The rats administered MCT (60 mg/kg) are caused pulmonary artery hypertension on day 21 after the intraperitoneal injection. The KMUP-1HCl salt (2.5 mg/kg), Simvastatin (2.5 mg/kg), KMUP-1-nicotinic acid complex (2.5 mg/kg), KMUP-1-citric acid complex (2.5 mg/kg), KMUP-1-Simvastatinic Acid complex (2.5 mg/kg) and KMUP-1-γ-polyglutamic acid complex (2.5 mg/kg) orally administered, or the KMUP-1-PGI2 complex (0.1 mM) inhaled every day may inhibit the pulmonary arterial blood pressure (PABP) in MCT-treated male Wistar rats.

TGF-β = TGF-β expression, bleomycin-induced lung fibrosis (EIA); assay type: in vivo, mice; details: BM 60 mg/kg
Description: The increased amount of the collagen synthesis and the macrophage generation in alveolus may facilitate the formulation of TGF-β, and the expression of TGF-β is deeming as a biomarker of the lung fibrosis. KMUP-1HCl salt (1, 2.5 and 5 mg/kg), the Simvastatin (5 mg/kg), the KMUP-1-nicotinic acid complex (2.5 mg/kg), the KMUP-1-Simvastatinic acid complex (2.5 mg/kg) and KMUP-1-γ-polyglutamic acid complex (2.5 mg/kg) are orally administered to the mice for inhibiting the lung fibrosis induced by TGF-β expression in tracheal lavage solution that resulted from 60 mg/kg BM inhalation (Table 6). The state of the TGF-β expression in the lavage is measured by the enzyme immunoassay (EIA).

eNOS = assay: Short-term nebulization without OVA sensitization, lung tissue; assay type: in vivo, mice; details: L-NAME-pretreatment 12 mM, 30 mins
Description: (§1) Short-term KMUP-1 (5 mM, 30 min) nebulization and pretreatment with L-NAME (12 mM, […]) are accomplished using a previously described method. Aerosols were generated by ultrasonic nebulizer from day 21 to 27. Mice were sacrificed on day 28. Three different experiments were performed on cohorts of 7-14 mice per experimental condition.
(§2) Please refer to FIGS. 22(B) and 23(B), the changes of eNOS and MMP-9 expression by KMUP-1 (2.5 mM, 30 mins) are reversed by L-NAME-pretreatment (12 mM, 30 mins).

MMP-9 [2] = assay: as above; assay type: in vivo, mice; details: L-NAME-pretreatment 12 mM, 30 mins
Description: as §1, §2

inflammatory cells = assay: H&E stain of lung tissue sections, bleomycin mice; assay type: in vivo; details: day 28
Text: In the histology observation, the bleomycin-induced mice show the pathology characteristic of lung fibrosis. In the lung tissue sections of the normal control group, the structure of the lung tissue is clear and has no inflammatory cells infiltration, the alveolar wall is complete and not being broaden, the lung atrophy and the vascular wall thickening are not found, and the inflammatory cells infiltration is not found in the bronchial cavity and the alveolar cavity. […] On day 28, the alveolar is dystructured, the macrophage aggregation can be seen in part of aveoli, the fibroblast and fibric cell proliferate, and the fibers are accumulated in the lung interstitium. In the treating group, the inflammatory state is inhibited well on day 7.
The with 10% formalin treated and freezed lung is placed in a tissue dehydrating machine, and the tissue is fixed, dehydrated, washed and rinsed in turn. The tissue is further prepared as a wax-embedded tissue by a tissue embedded machine through appropriate cooling. The wax-embedded tissue is cut by a sliding microtome. The slices about 4 μm are placed on the slides and extended in 35° C.-50° C. warm water, and then dried in a 56° C.-60° C. extender for staining
The slices are successively dehydrated via 50%-99.9% ethanol, incubated in xylene for 2 hrs and the incubation step is repeated twice. […]

collagen = assay: Collagen amount, bleomycin-induced IPF mice; assay type: in vivo; details: day 28 after BLM
Description: The amount of the collagen in the lung lavage is measured to reflect the fibrosis formation. […] (2) After the lung lavage is obtained, the chest of mice is opened and the lung lobes are cut one by one. […] The 1.5 ml eppendorffs are taken to arrange the calibration curve as follows. […] The eppendorff is then centrifuged at 12,000 rpm for 10 mins. The supernatant in the eppendorff is poured out slowly, 1 ml basic compound is added for dissolving the precipitation. After being violently shaken for 5 mins, the reaction is incubated for 3 hrs to stabilize the color. […] The amount of collagen is estimated through the 540 nm absorption measured by the ELISA reader.

[3] = system: inflammatory cells in the lung lavage; assay: Inflammatory cells in lung lavage, bleomycin-induced IPF mice; assay type: in vivo; parameters: WBC total (white blood cell total count) / NE (neutrophil) / LY (lymphocyte) / MO (monocyte) / EO (eosinophil) / BA (basophil): unit not given here; details: lung lavage
Description: The amounts of the total cell, the neutrophill, the lymphocyte, the monocyte, the eosinophill and the basophill are analyzed by an automatic animal blood cell analyzer for evaluating the extent of the inflammation. […] The mice are euthanatized by administering the Urathane in a dose of 37.5 mg/10 g. The larynx is opened, the trachea is picked out, cut and held by a forcepts and a 0.58 mm PE tube is slowly inserted the trachea for infusing 0.5 ml PBS. The PBS is incubated for 15 seconds and then collected after gently massaging the lung tissue. 1 c.c. lung lavage is obtained after the above steps are repeated twice. The lung lavage is collected and transferred into a centrifuged tube for centrifuging at 1,200 rpm at 4° C. for 6 mins. The supernatant is collected and stored at −80° C. for zymography, and the pellet is suspended in PBS for calculating the WBC count. The pellet of the alveolar lavage is suspended in PBS and transferred into an eppendorff. The amount and kind of the inflammatory cell such as WBC total, the lymphocyte, the monocyte, the neutrophil, the eosinophil and the basophil are analyzed by an automatic animal blood cell analyzer.

[4] = Body weight change, bleomycin-induced IPF mice; assay type: in vivo
Description: The six-week old mice are used in this experiment and divided into ten groups as follows. […] The six-week old male C57B1/6 mice are purchased from the National Laboratory Animal Center. […] After being […] pentobarbital in the dose of 0.52 mg/10 g, the mice is kept upright and positioned an otoscope into the larynx for looking into the trachea clearly. The bleomycin is loaded by a loading tip for intratracheal administration.

MMP-9 [5] = assay: OVA-induced MMP-9 expression in lung tissue, asthma mice; assay type: in vivo, BALB/c mice; details: OVA + drug 5 mM spray, 30 mins/day, days 21 to 27; lung tissue; OVA + vehicle control 100%
Description: The male BALB/c mice (20-23 g) are injected (i.p.) with OVA (5 mM, 30 mins), sensitized with OVA on day 1 and day 8 via i.p injection and activated by 2 mg aluminum hydroxide to which 2 μg OVA is absorbed. […] The asthmatic animals are divided into 5 groups, wherein the control group is only administered with saline spray and the remaining experimental groups are firstly administered with 1% OVA spray and then administered with the sprays of the related complex salts respectively as shown in Table 4. The inhibition of the expression of OVA-induced MMP-9 in lung tissue of BALB/c mice is measured.

Q: Which results are given for `Cn1c(=O)c2c(ncn2CCN2CCN(c3ccccc3Cl)CC2)n(C)c1=O.O=C(O)c1cccnc1` [KMUP-1-Nicotinic acid]?
A: Pulmonary arterial blood pressure (PABP), in words [1]: inhibit; PABP [1]: 12 ± 2.6 mmHg; The changing amount of TGF-β in the lung tissue (TGF-β; drug 2.5 mg/kg oral): 42 ± 3.8%

Q: With `COC(=O)[C@@H](N)CCCNC(=N)N[N+](=O)[O-]` [L-NAME, reference compound] as the compound, how does the “Change of eNOS expression by KMUP-1 (2.5 mM, 30 mins)” value (eNOS) read?
A: The value was “reversed”.

Q: What about the “Change of MMP-9 expression by KMUP-1 (2.5 mM, 30 mins)” value (MMP-9 [2]) of the same compound?
A: The value was “reversed”.

Q: Which “Inflammation, H&E stain” value (inflammatory cells) does the source give for `CC[C@H]1OC(=O)[C@H](C)[C@@H](O[C@H]2C[C@@](C)(OC)[C@@H](O)[C@H](C)O2)[C@H](C)[C@@H](O[C@@H]2O[C@H](C)C[C@H](N(C)C)[C@H]2O)[C@](C)(OC)C[C@@H](C)C(=O)[C@H](C)[C@@H](O)[C@]1(C)O` [Clarithromycin, reference compound] here?
A: The value was “still has a significant inflammation phenomenon”.

Q: And the “The amount of collagen” value (collagen; dose 10 mg/kg)?
A: The value was 86.07 ± 0.02 μg/lung.

Q: And the “BA (basophil)” value ([3]; day 7, dose 10 mg/kg)?
A: Its value is 0.02 ± 0.01.

Q: What about the “EO (eosinophil)” value ([3]; day 7, dose 10 mg/kg) of the same compound?
A: The value was 0.07 ± 0.02.

Q: What about the “LY (lymphocyte)” value ([3]; day 7, dose 10 mg/kg) of the same compound?
A: Its value is 0.56 ± 0.17.

Q: What about the “MO (monocyte)” value ([3]; day 7, dose 10 mg/kg) of the same compound?
A: The value was 0.05 ± 0.02.

Q: What about the “NE (neutrophil)” value ([3]; day 7, dose 10 mg/kg) of the same compound?
A: Its value is 0.2 ± 0.09.

Q: What about the “WBC total (white blood cell total count)” value ([3]; day 7, dose 10 mg/kg) of the same compound?
A: Its value is 0.89 ± 0.3.

Q: What about the “BA (basophil)” value ([3]; day 28, dose 10 mg/kg) of the same compound?
A: The value was 0.25 ± 0.16.

Q: And the “EO (eosinophil)” value ([3]; day 28, dose 10 mg/kg)?
A: Its value is 0.5 ± 0.33.

Q: And the “LY (lymphocyte)” value ([3]; day 28, dose 10 mg/kg)?
A: Its value is 1.64 ± 1.49.

Q: What about the “MO (monocyte)” value ([3]; day 28, dose 10 mg/kg) of the same compound?
A: Its value is 0.16 ± 0.16.

Q: What about the “NE (neutrophil)” value ([3]; day 28, dose 10 mg/kg) of the same compound?
A: Its value is 0.68 ± 0.57.

Q: What about the “WBC total (white blood cell total count)” value ([3]; day 28, dose 10 mg/kg) of the same compound?
A: The value was 3.23 ± 0.52.

Q: What about the Body weight ([4]; Day 7, dose 10 mg/kg) of the same compound?
A: Its Body weight is 19.93 ± 3.28 g.

Q: What about the Body weight ([4]; Day 14, dose 10 mg/kg) of the same compound?
A: Its Body weight is 19.17 ± 3.77 g.

Q: And the Body weight ([4]; Day 28, dose 10 mg/kg)?
A: Its Body weight is 24.7 ± 1.21 g.

Q: And the Body weight ([4]; Day −3, dose 10 mg/kg)?
A: Its Body weight is 24.6 ± 1.48 g.

Q: What does the source list for `Cn1c(=O)c2c(ncn2CCN2CCN(c3ccccc3Cl)CC2)n(C)c1=O` [KMUP-1 HCl salt]?
A: Pulmonary arterial blood pressure (PABP), in words [1]: inhibit; PABP [1]: 13 ± 1.7 mmHg; Inhibition % of the MMP-9 (MMP-9 [5]): 55%; The changing amount of TGF-β in the lung tissue (TGF-β; drug 2.5 mg/kg oral): 52 ± 5.2%

Q: With `CC(=O)N[C@@H](CS)C(=O)O.Cn1c(=O)c2c(ncn2CCN2CCN(c3ccccc3Cl)CC2)n(C)c1=O` [KMUP-1-Acetylcysteine] as the compound, how does the “Inhibition % of the MMP-9” value (MMP-9 [5]) read?
A: Its value is 68%.

Q: For `CC(C)(O)c1ccccc1CCC(SCC1(CC(=O)O)CC1)c1cccc(C=Cc2ccc3ccc(Cl)cc3n2)c1.Cn1c(=O)c2c(ncn2CCN2CCN(c3ccccc3Cl)CC2)n(C)c1=O` (stereo not drawn) [KMUP-1-Montelukast], which “Inhibition % of the MMP-9” value (MMP-9 [5]) is on record?
A: The value was 70%.

Q: With `CCC(C)(C)C(=O)O[C@H]1C[C@@H](C)C=C2C=C[C@H](C)[C@H](CC[C@@H]3C[C@@H](O)CC(=O)O3)[C@H]21` [Simvastatin, reference compound] as the compound, how does the “The amount of collagen” value (collagen; dose 5 mg/kg) read?
A: Its value is 140.53 ± 0.05 μg/lung.

Q: And the “BA (basophil)” value ([3]; day 7, dose 5 mg/kg)?
A: The value was 0.22 ± 0.23.

Q: And the “EO (eosinophil)” value ([3]; day 7, dose 5 mg/kg)?
A: Its value is 0.46 ± 0.4.

Q: What about the “LY (lymphocyte)” value ([3]; day 7, dose 5 mg/kg) of the same compound?
A: The value was 1.5 ± 2.17.

Q: What about the “MO (monocyte)” value ([3]; day 7, dose 5 mg/kg) of the same compound?
A: Its value is 0.13 ± 0.19.

Q: What about the “NE (neutrophil)” value ([3]; day 7, dose 5 mg/kg) of the same compound?
A: The value was 0.76 ± 0.53.

Q: And the “WBC total (white blood cell total count)” value ([3]; day 7, dose 5 mg/kg)?
A: The value was 3.09 ± 2.98.

Q: What about the “BA (basophil)” value ([3]; day 28, dose 5 mg/kg) of the same compound?
A: The value was 0.22 ± 0.22.

Q: And the “EO (eosinophil)” value ([3]; day 28, dose 5 mg/kg)?
A: Its value is 0.46 ± 0.35.

Q: And the “LY (lymphocyte)” value ([3]; day 28, dose 5 mg/kg)?
A: The value was 1.5 ± 3.03.

Q: What about the “MO (monocyte)” value ([3]; day 28, dose 5 mg/kg) of the same compound?
A: The value was 0.13 ± 0.26.

Q: What about the “NE (neutrophil)” value ([3]; day 28, dose 5 mg/kg) of the same compound?
A: Its value is 0.76 ± 0.61.

Q: And the “WBC total (white blood cell total count)” value ([3]; day 28, dose 5 mg/kg)?
A: Its value is 3.09 ± 0.92.

Q: What about the “The changing amount of TGF-β in the lung tissue” value (TGF-β; drug 5 mg/kg oral) of the same compound?
A: Its value is 40 ± 4.3%.

Q: And the Body weight ([4]; Day 7, dose 5 mg/kg)?
A: The Body weight was 17.9 ± 1.56 g.

Q: And the Body weight ([4]; Day 14, dose 5 mg/kg)?
A: The Body weight was 19.8 ± 2.31 g.

Q: And the Body weight ([4]; Day 28, dose 5 mg/kg)?
A: The Body weight was 20.3 ± 1.65 g.

Q: What about the Body weight ([4]; Day −3, dose 5 mg/kg) of the same compound?
A: The Body weight was 23.5 ± 1.32 g.

Q: With `Cn1c(=O)c2c(ncn2CCN2CCN(c3ccccc3Cl)CC2)n(C)c1=O.N=C(N)NCCCC(N)C(=O)O` [KMUP-1-Arginine] as the compound, how does the “Inhibition % of the MMP-9” value (MMP-9 [5]) read?
A: The value was 65%.
